In patent US20250230193A1, “CYCLIC COMPOUND HAVING SELECTIVE KRAS INHIBITORY EFFECT ON HRAS AND NRAS” (CHUGAI SEIYAKU KABUSHIKI KAISHA, priority 2022, published 2025):

Legend:
[1] = molecular target: GDP-bound NRAS wild-type protein (Homo sapiens, UniProt P01111); assay: Binding to NRAS by surface plasmon resonance (SPR), Single Cycle Kinetics; conditions: SPR; KD ratio class
[2] = molecular target: GDP-bound HRAS wild-type protein (Homo sapiens, UniProt P01112); assay: Binding to HRAS by surface plasmon resonance (SPR), Single Cycle Kinetics; conditions: SPR; KD ratio class
[3] = test system: human lung cancer strain NCI-H441; assay: cells; conditions: NCI-H441, 96 h, read-out: NCI-H441 IC50 (nM)

Chain of GDP-bound HRAS wild-type protein (P01112 whole entry): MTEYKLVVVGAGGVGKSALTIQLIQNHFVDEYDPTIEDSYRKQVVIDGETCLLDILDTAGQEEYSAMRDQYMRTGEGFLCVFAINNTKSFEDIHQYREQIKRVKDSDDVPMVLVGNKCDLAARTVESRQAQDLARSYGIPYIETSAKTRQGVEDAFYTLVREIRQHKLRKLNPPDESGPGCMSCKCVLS
Chain of GDP-bound NRAS wild-type protein (P01111 whole entry): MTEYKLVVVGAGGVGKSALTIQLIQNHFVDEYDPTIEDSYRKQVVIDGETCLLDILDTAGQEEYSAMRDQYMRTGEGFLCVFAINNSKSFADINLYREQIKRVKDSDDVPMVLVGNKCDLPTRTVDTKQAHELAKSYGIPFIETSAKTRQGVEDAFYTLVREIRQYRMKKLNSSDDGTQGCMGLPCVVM

Compound | NRAS/KRAS (ratio of KD value for GDP-bound NRAS wild-type protein to KD value for KRAS) [1] | HRAS/KRAS (ratio of KD value for GDP-bound HRAS wild-type protein to KD value for KRAS) [2] | IC50 [3]
CCO[C@@H]1C[C@H]2C(=O)NC3(CCC3)C(=O)N(C)[C@@H](C3CCCC3)C(=O)N(C)[C@H](C)CC(=O)N(C)[C@@H](CC3CC3)C(=O)N[C@@H]([C@@H](C)CC)C(=O)N(C)CC(=O)N(C)[C@H]3C/C=C\CCN(C3=O)[C@@H](Cc3ccc(F)cc3)C(=O)N(C)CC(=O)N[C@@H](CCc3cc(F)c(C(F)(F)F)c(F)c3)C(=O)N2C1 [PP1490] | B (a compound having 3 or more and less than 10 is denoted as B) | B (a compound having 3 or more and less than 10 is denoted as B) | 48.9 nM
CCO[C@@H]1C[C@H]2C(=O)NC3(CCCC3)C(=O)N(C)[C@@H](C3CCCC3)C(=O)N(C)[C@H](C(=O)N(C)C)CC(=O)N(C)[C@@H](CC3CC3)C(=O)N[C@@H]([C@@H](C)CC)C(=O)N(C)CC(=O)N(C)[C@H]3C[C@@H](C)[C@@H](C)CN(C3=O)[C@@H](Cc3ccc(C(F)(F)F)cc3)C(=O)N(C)CC(=O)N[C@@H](CCc3cc(F)c(C(F)(F)F)c(F)c3)C(=O)N2C1 [PP1356] | B (a compound having 3 or more and less than 10 is denoted as B) | B (a compound having 3 or more and less than 10 is denoted as B) | 3.3 nM
CCCOC[C@H]1C(=O)N[C@@H]([C@@H](C)CC)C(=O)N(C)CC(=O)N(C)[C@H]2C/C=C\CCN(C2=O)[C@@H](Cc2ccc(C(F)(F)F)cc2)C(=O)N(C)CC(=O)N[C@@H](CCc2cc(F)c(C(F)(F)F)c(F)c2)C(=O)N2C[C@H](OCC)C[C@H]2C(=O)NC2(CCC2)C(=O)N(C)[C@@H](C2CCCC2)C(=O)N(C)[C@H](C(=O)N(C)CC)CC(=O)N1C [PP1569] | A (a compound having 10 or more and less than 20 is denoted as A) | B (a compound having 3 or more and less than 10 is denoted as B) | 2.8 nM
CCO[C@@H]1C[C@H]2C(=O)NC3(CCC3)C(=O)N(C)[C@@H](C3CCCC3)C(=O)N(C)[C@H](C(=O)N3CCCCC3)CC(=O)N(C)[C@@H](CC)C(=O)N[C@@H]([C@@H](C)CC)C(=O)N(C)CC(=O)N(C)[C@H]3C/C=C\CCN(C3=O)[C@@H](Cc3ccc(C(F)(F)F)cc3)C(=O)N(C)CC(=O)N[C@@H](CCc3cc(F)c(C(F)(F)F)c(F)c3)C(=O)N2C1 [PP1289] | AA (a compound having 20 or more is denoted as AA) | A (a compound having 10 or more and less than 20 is denoted as A) | 34.7 nM
CCO[C@@H]1C[C@H]2C(=O)NC3(CC(C)(C)C3)C(=O)N(C)[C@@H](C3CCCC3)C(=O)N(C)[C@H](C(=O)N(C)C)CC(=O)N(C)[C@@H](CC3CCCC3)C(=O)N[C@@H]([C@@H](C)CC)C(=O)N(C)CC(=O)N(C)[C@H]3C/C=C\CCN(C3=O)[C@@H](Cc3ccc(C(F)(F)F)cc3)C(=O)N(C)CC(=O)N[C@@H](CCc3ccc(C(F)(F)F)c(OC)c3)C(=O)N2C1 [PP1565] | A (a compound having 10 or more and less than 20 is denoted as A) | B (a compound having 3 or more and less than 10 is denoted as B) | 6.5 nM
CCO[C@@H]1C[C@H]2C(=O)NC3(CCC3)C(=O)N(C)[C@@H](C(CC)CC)C(=O)N(C)[C@H](C(=O)N(C)C)CC(=O)N(C)[C@@H](CC(C)C)C(=O)N[C@@H]([C@@H](C)CC)C(=O)N(C)CC(=O)N(C)[C@H]3C/C=C\CCN(C3=O)[C@@H](Cc3ccc(F)cc3C)C(=O)N(C)CC(=O)N[C@@H](CCc3cc(F)c(C(F)(F)F)c(F)c3)C(=O)N2C1 [PP1518] | A (a compound having 10 or more and less than 20 is denoted as A) | B (a compound having 3 or more and less than 10 is denoted as B) | 49.4 nM
CC[C@H](C)[C@@H]1NC(=O)[C@H](CC)N(C)C(=O)C[C@@H](C(=O)N2CCOCC2)N(C)C(=O)[C@H](C2CCCC2)N(C)C(=O)C2(CCC2)NC(=O)[C@@H]2CCCN2C(=O)[C@H](CCc2ccc(C(F)(F)F)c(Cl)c2)NC(=O)CN(C)C(=O)[C@H](Cc2ccc(C(F)(F)F)cc2)N2C[C@H](C)CC[C@@H](C2=O)N(C)C(=O)CN(C)C1=O [PP1338] | B (a compound having 3 or more and less than 10 is denoted as B) | B (a compound having 3 or more and less than 10 is denoted as B) | 35 nM
CCO[C@@H]1C[C@H]2C(=O)NC3(CCC3)C(=O)N(C)[C@@H](C(CC)CC)C(=O)N(C)[C@H](C(=O)N(C)C)CC(=O)N(C)[C@@H](CC3CC3)C(=O)N[C@@H]([C@@H](C)CC)C(=O)N(C)CC(=O)N(C)[C@H]3C/C=C\CCN(C3=O)[C@@H](CC3CCC(F)(F)CC3)C(=O)N(C)CC(=O)N[C@@H](CCc3cc(F)c(C(F)(F)F)c(F)c3)C(=O)N2C1 [PP1429] | AA (a compound having 20 or more is denoted as AA) | A (a compound having 10 or more and less than 20 is denoted as A) | 38.7 nM
CCO[C@@H]1C[C@H]2C(=O)NC3(CCC3)C(=O)N(C)[C@@H](C3CCCC3)C(=O)N(C)[C@H](C(=O)N3CCOCC3)CC(=O)N(C)[C@@H](CC)C(=O)N[C@@H]([C@@H](C)CC)C(=O)N3CC[C@H]3C(=O)N(C)[C@H]3CC[C@@H](C)CN(C3=O)[C@@H](Cc3ccc(C(F)(F)F)cc3)C(=O)N(C)CC(=O)N[C@@H](CCc3cc(F)c(C(F)(F)F)c(F)c3)C(=O)N2C1 [PP1369] | B (a compound having 3 or more and less than 10 is denoted as B) | B (a compound having 3 or more and less than 10 is denoted as B) | 13.4 nM
CC[C@H](C)[C@@H]1NC(=O)[C@H](CC)N(C)C(=O)C[C@@H](C(=O)N(C)C)N(C)C(=O)[C@H](C2CCCC2)N(C)C(=O)C2(CCC2)NC(=O)[C@@H]2CCCN2C(=O)[C@H](CCc2cc(F)c(C(F)(F)F)c(F)c2)NC(=O)CN(C)C(=O)[C@H](CC2CCC(F)(F)CC2)N2CC/C=C\C[C@@H](C2=O)N(C)C(=O)CN(C)C1=O [PP1461] | A (a compound having 10 or more and less than 20 is denoted as A) | A (a compound having 10 or more and less than 20 is denoted as A) | 121 nM
CC[C@H](C)[C@@H]1NC(=O)[C@H](CC)N(C)C(=O)C[C@@H](C(=O)N(C)C)N(C)C(=O)[C@H](C2CCCC2)N(C)C(=O)C2(CCCC2)NC(=O)[C@@H]2CCCN2C(=O)[C@H](CCc2cc(F)c(C(F)(F)F)c(F)c2)NC(=O)CN(C)C(=O)[C@H](Cc2ccc(C(F)(F)F)cc2)N2C[C@H](C)[C@H](C)C[C@@H](C2=O)N(C)C(=O)CN(C)C1=O [PP1364] | A (a compound having 10 or more and less than 20 is denoted as A) | B (a compound having 3 or more and less than 10 is denoted as B) | 7.1 nM
CCO[C@@H]1C[C@H]2C(=O)NC3(CCC3)C(=O)N(C)[C@@H](C(CC)CC)C(=O)N(C)[C@H](C(=O)N(C)C)CC(=O)N(C)[C@@H](CC3CCCC3)C(=O)N[C@@H]([C@@H](C)CC)C(=O)N(C)CC(=O)N(C)[C@H]3C/C=C\CCN(C3=O)[C@@H](Cc3ccc(C(F)(F)F)cc3)C(=O)N(C)CC(=O)N[C@@H](CCc3ccc(C(F)(F)F)c(OC)c3)C(=O)N2C1 [PP1212] | AA (a compound having 20 or more is denoted as AA) | A (a compound having 10 or more and less than 20 is denoted as A) | 35.6 nM
CCO[C@@H]1C[C@H]2C(=O)NC3(CCC3)C(=O)N(C)[C@@H](C(CC)CC)C(=O)N(C)[C@H](C(=O)N(C)C)CC(=O)N(C)[C@@H](CC(C)C)C(=O)N[C@@H]([C@@H](C)CC)C(=O)N(C)CC(=O)N(C)[C@H]3C/C=C\CCN(C3=O)[C@@H](Cc3ccc(F)cc3)C(=O)N(C)CC(=O)N[C@@H](CCc3cc(F)c(C(F)(F)F)c(F)c3)C(=O)N2C1 [PP1519] | A (a compound having 10 or more and less than 20 is denoted as A) | A (a compound having 10 or more and less than 20 is denoted as A) | 78.2 nM
CCO[C@@H]1C[C@H]2C(=O)NC3(CCC3)C(=O)N(C)[C@@H](C3CCCC3)C(=O)N(C)[C@H](C(=O)N3CCOCC3)CC(=O)N(C)[C@@H](C)C(=O)N[C@@H]([C@@H](C)CC)C(=O)N(C)CC(=O)N(C)[C@H]3C/C=C\CCN(C3=O)[C@@H](Cc3ccc(C(F)(F)F)cc3)C(=O)N(C)CC(=O)N[C@@H](CCc3cc(F)c(C(F)(F)F)c(F)c3)C(=O)N2C1 [PP1284] | AA (a compound having 20 or more is denoted as AA) | A (a compound having 10 or more and less than 20 is denoted as A) | 54.8 nM
CC[C@H](C)[C@@H]1NC(=O)[C@H](CC2CC2)N(C)C(=O)C[C@@H](C(=O)N(C)C)N(C)C(=O)[C@H](C2CCCC2)N(C)C(=O)C2(CCCC2)NC(=O)[C@@H]2CCCN2C(=O)[C@H](CCc2cc(F)c(C(F)(F)F)c(F)c2)NC(=O)CN(C)C(=O)[C@H](Cc2ccc(C(F)(F)F)cc2)N2C[C@H](C)[C@H](C)C[C@@H](C2=O)N(C)C(=O)CN(C)C1=O [PP1368] | A (a compound having 10 or more and less than 20 is denoted as A) | B (a compound having 3 or more and less than 10 is denoted as B) | 2.9 nM
